Test results taken from US10597388B2, “Pyridazinone herbicides” (FMC CORPORATION, priority 2014, dated 2020).

Tests used:
Type in all cases: in vivo
kochia (Kochia scoparia) [1] = assay: Test A greenhouse herbicide test, pre- and postemergence
Summary of the method: (§1)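 Visual injury ratings, 0 (no effect) to 100 (complete control), versus untreated plants after roughly 10 d in a greenhouse. Compounds, formulated in a surfactant-containing non-phytotoxic solvent, were sprayed on loam–sand soil after sowing (pre) or on one- to two-leaf plants 2–10 cm tall (post).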

[2] = test system: pigweed (Amaranthus retroflexus); assay: as above
Summary of the method: as §1

corn (Zea mays) = assay: as above; details: Postemergence; for Plant response rating, Corn: 125 g ai/ha, 0 to 100 scale where 0 is no effect and 100 is complete control; for Corn plant response rating: 500 g ai/ha, 0 to 100 scale, 0 is no effect, 100 is complete control
Summary of the method: as §1

[3] = test system: wheat (Triticum aestivum); assay: as above; details: Postemergence; for Plant response rating, Wheat: 125 g ai/ha, 0 to 100 scale where 0 is no effect and 100 is complete control; for Wheat plant response rating: 500 g ai/ha, 0 to 100 scale, 0 is no effect, 100 is complete control
Summary of the method: as §1

[4] = test system: barnyardgrass (Echinochloa crus-galli); assay: as above
Summary of the method: as §1

[5] = test system: ragweed (common ragweed, Ambrosia elatior); assay: as above
Summary of the method: as §1

[6] = test system: blackgrass (Alopecurus myosuroides); assay: Test A greenhouse herbicide test, postemergence; details: for Plant response rating, Blackgrass: 125 g ai/ha, 0 to 100 scale where 0 is no effect and 100 is complete control; for Blackgrass plant response rating: 500 g ai/ha, 0 to 100 scale, 0 is no effect, 100 is complete control
Summary of the method: (§2)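 Scores are visual injury ratings from 0 (no effect) to 100 (complete control) versus untreated plants, taken roughly 10 d after treatment in the greenhouse. Treatment was postemergence, on one- to two-leaf plants 2–10 cm high growing in a loam soil/sand mix.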

[7] = test system: galium (catchweed bedstraw, Galium aparine); assay: Test A greenhouse herbicide test, postemergence; details: for Plant response rating, Galium: 125 g ai/ha, 0 to 100 scale where 0 is no effect and 100 is complete control; for Galium plant response rating: 500 g ai/ha, 0 to 100 scale, 0 is no effect, 100 is complete control
Summary of the method: as §2

kochia (Kochia scoparia) [8] = assay: Test C greenhouse herbicide test, postemergence; details: for Plant response rating, Kochia: Postemergence; for Kochia plant response rating: postemergence, 62 g ai/ha
Summary of the method: (§3)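 Seedlings are raised in pots of peat moss–vermiculite medium with starter nutrients, then receive postemergence test chemical at the 1- to 4-leaf stage. They are kept in the greenhouse 13 to 15 d and scored visually versus controls, 0 meaning no effect and 100 complete control.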

[9] = test system: oat, wild (wild oat, Avena fatua); assay: Test C greenhouse herbicide test, postemergence; details: for Plant response rating, Oat, Wild: Postemergence; for Oat, Wild plant response rating: postemergence, 62 g ai/ha
Summary of the method: as §3

[10] = test system: oilseed rape (Brassica napus); assay: Test C greenhouse herbicide test, pre- and postemergence
Summary of the method: (§4)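 Visual 0–100 injury score (100 = complete control) taken against untreated controls after 13–15 d in greenhouse. Test chemicals, formulated in solvent plus surfactant, applied preemergence to seeds in loam–sand soil or postemergence to 1- to 4-leaf plants (2–18 cm).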

[11] = test system: crabgrass, large (large crabgrass, Digitaria sanguinalis); assay: as above
Summary of the method: as §4

[12] = Postemergence, 125 g ai/ha, 0 to 100 scale where 0 is no effect and 100 is complete control
[13] = Postemergence, 500 g ai/ha, 0 to 100 scale, 0 is no effect, 100 is complete control
[14] = Preemergence, 125 g ai/ha, 0 to 100 scale where 0 is no effect and 100 is complete control
[15] = Preemergence, 500 g ai/ha, 0 to 100 scale where 0 is no effect and 100 is complete control
[16] = 125 g ai/ha, scale 0 to 100, 0 is no effect, 100 is complete control
[17] = 250 g ai/ha, scale 0 to 100, 0 no effect, 100 complete control, 13 to 15 d
[18] = scale 0 to 100, 0 no effect, 100 complete control
[19] = Postemergence, 125 g ai/ha, scale 0 to 100, 0 is no effect, 100 is complete control
[20] = Postemergence, 250 g ai/ha, scale 0 to 100, 0 no effect, 100 complete control, 13 to 15 d
[21] = Preemergence, 31 g ai/ha, scale 0 to 100, 0 is no effect, 100 is complete control
[22] = Preemergence, 62 g ai/ha, scale 0 to 100, 0 is no effect, 100 is complete control
[23] = Preemergence, 125 g ai/ha, scale 0 to 100, 0 is no effect, 100 is complete control
[24] = Preemergence, 250 g ai/ha, scale 0 to 100 (0 no effect, 100 complete control)
[25] = postemergence, 62 g ai/ha, scale 0 to 100, 0 no effect, 100 complete control

Question: For `Cc1cc(C)c2sc(C)c(-c3c(OC(=O)OCCCl)c(C)nn(C)c3=O)c2c1` [Compound 85], which “Plant response rating, Kochia” value (kochia (Kochia scoparia) [1]; [12]) is on record?
Answer: 30

Question: And the “Kochia plant response rating” value (kochia (Kochia scoparia) [1]; [13])?
Answer: 70

Question: What about the “Kochia plant response rating” value (kochia (Kochia scoparia) [1]; [14]) of the same molecule?
Answer: 0

Question: What about the “Plant response rating, Kochia” value (kochia (Kochia scoparia) [1]; [15]) of the same molecule?
Answer: 30

Question: And the “Plant response rating, Pigweed” value [2, 12]?
Answer: 90

Question: And the “Pigweed plant response rating” value [2, 13]?
Answer: 100

Question: What about the “Pigweed plant response rating” value [2, 14] of the same molecule?
Answer: 100

Question: What about the “Plant response rating, Pigweed” value [2, 15] of the same molecule?
Answer: 100

Question: What about the “Plant response rating, Corn” value (corn (Zea mays)) of the same molecule?
Answer: 0

Question: What about the “Corn plant response rating” value (corn (Zea mays)) of the same molecule?
Answer: 0

Question: And the “Plant response rating, Wheat” value [3]?
Answer: 0

Question: What about the “Wheat plant response rating” value [3] of the same molecule?
Answer: 0

Question: And the “Plant response rating, Barnyardgrass” value [4, 12]?
Answer: 30

Question: What about the “Barnyardgrass plant response rating” value [4, 13] of the same molecule?
Answer: 80

Question: What about the “Barnyardgrass plant response rating” value [4, 14] of the same molecule?
Answer: 70

Question: And the “Plant response rating, Barnyardgrass” value [4, 15]?
Answer: 100

Question: And the “Plant response rating, Ragweed” value [5, 12]?
Answer: 90

Question: And the “Ragweed plant response rating” value [5, 13]?
Answer: 90

Question: What about the “Ragweed plant response rating” value [5, 14] of the same molecule?
Answer: 90

Question: What about the “Plant response rating, Ragweed” value [5, 15] of the same molecule?
Answer: 90

Question: What about the “Plant response rating, Blackgrass” value [6] of the same molecule?
Answer: 90

Question: What about the “Blackgrass plant response rating” value [6] of the same molecule?
Answer: 90

Question: And the “Plant response rating, Galium” value [7]?
Answer: 90

Question: And the “Galium plant response rating” value [7]?
Answer: 100

Question: And the “Plant response rating, Kochia” value (kochia (Kochia scoparia) [8]; [16])?
Answer: 60

Question: And the “Plant response rating, Kochia” value (kochia (Kochia scoparia) [8]; [17])?
Answer: 70

Question: What about the “Kochia plant response rating” value (kochia (Kochia scoparia) [8]; [18]) of the same molecule?
Answer: 70

Question: And the “Plant response rating, Oat, Wild” value [9, 16]?
Answer: 95

Question: And the “Plant response rating, Oat, Wild” value [9, 17]?
Answer: 90

Question: What about the “Oat, Wild plant response rating” value [9, 18] of the same molecule?
Answer: 90

Question: And the “Plant response rating, Oilseed Rape” value [10, 19]?
Answer: 10

Question: And the “Plant response rating, Oilseed Rape” value [10, 20]?
Answer: 15

Question: And the “Plant response rating, Oilseed Rape” value [10, 21]?
Answer: 5

Question: And the “Plant response rating, Oilseed Rape” value [10, 22]?
Answer: 85

Question: And the “Plant response rating, Oilseed Rape” value [10, 23]?
Answer: 40

Question: What about the “Oilseed Rape plant response rating” value [10, 24] of the same molecule?
Answer: 90

Question: What about the “Oilseed Rape plant response rating” value [10, 25] of the same molecule?
Answer: 10

Question: What about the “Plant response rating, Crabgrass, Large” value [11, 19] of the same molecule?
Answer: 40

Question: What about the “Plant response rating, Crabgrass, Large” value [11, 20] of the same molecule?
Answer: 45

Question: What about the “Plant response rating, Crabgrass, Large” value [11, 21] of the same molecule?
Answer: 80

Question: And the “Plant response rating, Crabgrass, Large” value [11, 22]?
Answer: 85

Question: And the “Plant response rating, Crabgrass, Large” value [11, 23]?
Answer: 80

Question: And the “Crabgrass, Large plant response rating” value [11, 24]?
Answer: 85

Question: And the “Crabgrass, Large plant response rating” value [11, 25]?
Answer: 30

Question: Which “Plant response rating, Kochia” value (kochia (Kochia scoparia) [1]; [12]) does the source give for `C#CCOC(=O)Oc1c(C)nn(C)c(=O)c1-c1c(C)sc2ccc(C)cc12` [Compound 87] here?
Answer: 90

Question: And the “Kochia plant response rating” value (kochia (Kochia scoparia) [1]; [13])?
Answer: 90

Question: And the “Kochia plant response rating” value (kochia (Kochia scoparia) [1]; [14])?
Answer: 80

Question: What about the “Plant response rating, Kochia” value (kochia (Kochia scoparia) [1]; [15]) of the same molecule?
Answer: 90

Question: What about the “Plant response rating, Pigweed” value [2, 12] of the same molecule?
Answer: 80

Question: And the “Pigweed plant response rating” value [2, 13]?
Answer: 90

Question: What about the “Pigweed plant response rating” value [2, 14] of the same molecule?
Answer: 100

Question: And the “Plant response rating, Pigweed” value [2, 15]?
Answer: 100

Question: What about the “Plant response rating, Corn” value (corn (Zea mays)) of the same molecule?
Answer: 0

Question: What about the “Corn plant response rating” value (corn (Zea mays)) of the same molecule?
Answer: 0

Question: What about the “Plant response rating, Wheat” value [3] of the same molecule?
Answer: 0

Question: What about the “Wheat plant response rating” value [3] of the same molecule?
Answer: 0

Question: What about the “Plant response rating, Barnyardgrass” value [4, 12] of the same molecule?
Answer: 40

Question: And the “Barnyardgrass plant response rating” value [4, 13]?
Answer: 80

Question: What about the “Barnyardgrass plant response rating” value [4, 14] of the same molecule?
Answer: 50

Question: And the “Plant response rating, Barnyardgrass” value [4, 15]?
Answer: 80

Question: And the “Plant response rating, Ragweed” value [5, 12]?
Answer: 80

Question: And the “Ragweed plant response rating” value [5, 13]?
Answer: 90

Question: And the “Ragweed plant response rating” value [5, 14]?
Answer: 70

Question: What about the “Plant response rating, Ragweed” value [5, 15] of the same molecule?
Answer: 80

Question: What about the “Plant response rating, Blackgrass” value [6] of the same molecule?
Answer: 80

Question: And the “Blackgrass plant response rating” value [6]?
Answer: 80

Question: What about the “Plant response rating, Galium” value [7] of the same molecule?
Answer: 90

Question: And the “Galium plant response rating” value [7]?
Answer: 90

Question: What about the “Plant response rating, Kochia” value (kochia (Kochia scoparia) [8]; [16]) of the same molecule?
Answer: 90

Question: What about the “Plant response rating, Kochia” value (kochia (Kochia scoparia) [8]; [17]) of the same molecule?
Answer: 95

Question: And the “Kochia plant response rating” value (kochia (Kochia scoparia) [8]; [18])?
Answer: 90

Question: And the “Plant response rating, Oat, Wild” value [9, 16]?
Answer: 85

Question: What about the “Plant response rating, Oat, Wild” value [9, 17] of the same molecule?
Answer: 90

Question: And the “Oat, Wild plant response rating” value [9, 18]?
Answer: 90

Question: And the “Plant response rating, Oilseed Rape” value [10, 19]?
Answer: 50

Question: What about the “Plant response rating, Oilseed Rape” value [10, 20] of the same molecule?
Answer: 20

Question: And the “Plant response rating, Oilseed Rape” value [10, 21]?
Answer: 30

Question: What about the “Plant response rating, Oilseed Rape” value [10, 22] of the same molecule?
Answer: 30

Question: What about the “Plant response rating, Oilseed Rape” value [10, 23] of the same molecule?
Answer: 85

Question: What about the “Oilseed Rape plant response rating” value [10, 24] of the same molecule?
Answer: 80

Question: And the “Oilseed Rape plant response rating” value [10, 25]?
Answer: 50

Question: What about the “Plant response rating, Crabgrass, Large” value [11, 19] of the same molecule?
Answer: 25

Question: What about the “Plant response rating, Crabgrass, Large” value [11, 20] of the same molecule?
Answer: 35

Question: What about the “Plant response rating, Crabgrass, Large” value [11, 21] of the same molecule?
Answer: 10

Question: And the “Plant response rating, Crabgrass, Large” value [11, 22]?
Answer: 65

Question: And the “Plant response rating, Crabgrass, Large” value [11, 23]?
Answer: 80

Question: And the “Crabgrass, Large plant response rating” value [11, 24]?
Answer: 85

Question: And the “Crabgrass, Large plant response rating” value [11, 25]?
Answer: 10
